Patent US8986652B2, “Method of preparing [123I]iodooctyl fenbufen amide and application thereof” (National Tsing Hua University, priority 2012, dated 2015)
Read-outs that look alike come from different tables or passages of the source. Each block holds one compound with its values, some of them ahead of it.

Columns and labels:
rat liver tumor lesion = details: cited from earlier work
COX-1 [1] = target: T1, COX-1 (Ovis aries, UniProt P05979); experiment: Radioligand binding assay by gel filtration HPLC, COX-1; design: species or system ovine; details: for Binding yield (bound conjugate, accumulated radioactivity fraction) with COX-1: 25° C., 15 min incubation, peak at 5 min / (5 min + 13.6 min)
T1 construct: purchased Cayman Chemical Ltd 760111
T1 sequence (P05979 25-600): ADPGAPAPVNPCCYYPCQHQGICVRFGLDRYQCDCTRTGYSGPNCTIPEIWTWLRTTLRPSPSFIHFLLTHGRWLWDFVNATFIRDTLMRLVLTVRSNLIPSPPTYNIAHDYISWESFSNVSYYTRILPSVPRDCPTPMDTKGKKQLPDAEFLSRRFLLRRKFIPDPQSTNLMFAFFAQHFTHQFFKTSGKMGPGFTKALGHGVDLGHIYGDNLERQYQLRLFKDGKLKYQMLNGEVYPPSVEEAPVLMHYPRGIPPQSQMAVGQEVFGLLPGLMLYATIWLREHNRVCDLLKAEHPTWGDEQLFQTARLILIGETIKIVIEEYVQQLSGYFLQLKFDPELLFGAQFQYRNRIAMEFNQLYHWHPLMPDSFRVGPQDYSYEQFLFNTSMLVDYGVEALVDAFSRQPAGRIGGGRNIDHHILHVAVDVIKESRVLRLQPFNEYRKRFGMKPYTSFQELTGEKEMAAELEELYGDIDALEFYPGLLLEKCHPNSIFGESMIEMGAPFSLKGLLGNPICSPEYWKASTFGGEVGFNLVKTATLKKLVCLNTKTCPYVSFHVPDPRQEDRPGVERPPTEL
Description: (§1) The compound of formula 1 was purified by a set of HPLC consisting of the components of a Waters 510 pump, a linear UVIS detector (254 nm) in series with a Berthhold γ-flow detector, on a ZORBAX SIL column (250 mm×9.4 mm, 5 μm) at 3 mL/min with MeOH/CHCl3=1/99 as the mobile phase. Quality analysis of The compound of formula 1 was performed on the same HPLC setup as described above. The settings for radioactive ligand binding assay included a gel filtration column of TSKgel G3000PWx1 7.5×300 (mm) with a particle size of 10 μm which was purchased from Tosoh Bioscience LLC. The corresponding eluting conditions including PBS buffer and flow rate of 1 mL/min were employed throughout the experiment. The identity of The compound of formula 1 was confirmed with the compound of formula 2 on HPLC chromatogram after coinjection. The peak area of the UV absorbance at 254 nm that should correspond to the compound of formula 2 was calculated by interpolating to the standard curve relating mass to UV absorbance. Only a specific activity below 36 GBq/μmol can be measured accurately. Radioactive measurements were performed by a Capintec R15C dose calibrator.
(§2) The binding experiment was carried out in an eppendorf (0.2 mL) and stood for 10 min for equilibrium. An aliquot (10 μL) was drawn from the commercial stock solution (200 μL). Additional 30 μL of tris buffer (0.1 M, pH=8.0) was added. The solution (40 μL) of COX-1 or COX-2 each was added into a tris buffer (50 μL) together with the addition of a solution of the radiotracer the compound of formula 1 in EtOH with concentration ranging from 66 μCi/10 μL to 70 μCi/10 μL. The whole mixture (100 μL) was incubated at 25° C. for 15 min followed by submission to purification using HPLC. PBS buffer (0.1 M, pH=7.3) was employed as the eluent and the flow rate was set to be 1 mL/min.
(§3) The assay was based on that the retention time of the bound complex between radiolabeled ligand and enzyme was different from that of the unbound ligand in HPLC. […]

COX-2 [2] = target: T2, COX-2 (Ovis aries, UniProt P79208); experiment: Radioligand binding assay by gel filtration HPLC, COX-2; design: species or system ovine; details: for Binding yield (bound conjugate, accumulated radioactivity fraction) with COX-2: 25° C., 15 min incubation, peak at 5 min / (5 min + 13.6 min)
T2 construct: purchased Cayman Chemical Ltd 760111
T2 sequence (P79208 17-603): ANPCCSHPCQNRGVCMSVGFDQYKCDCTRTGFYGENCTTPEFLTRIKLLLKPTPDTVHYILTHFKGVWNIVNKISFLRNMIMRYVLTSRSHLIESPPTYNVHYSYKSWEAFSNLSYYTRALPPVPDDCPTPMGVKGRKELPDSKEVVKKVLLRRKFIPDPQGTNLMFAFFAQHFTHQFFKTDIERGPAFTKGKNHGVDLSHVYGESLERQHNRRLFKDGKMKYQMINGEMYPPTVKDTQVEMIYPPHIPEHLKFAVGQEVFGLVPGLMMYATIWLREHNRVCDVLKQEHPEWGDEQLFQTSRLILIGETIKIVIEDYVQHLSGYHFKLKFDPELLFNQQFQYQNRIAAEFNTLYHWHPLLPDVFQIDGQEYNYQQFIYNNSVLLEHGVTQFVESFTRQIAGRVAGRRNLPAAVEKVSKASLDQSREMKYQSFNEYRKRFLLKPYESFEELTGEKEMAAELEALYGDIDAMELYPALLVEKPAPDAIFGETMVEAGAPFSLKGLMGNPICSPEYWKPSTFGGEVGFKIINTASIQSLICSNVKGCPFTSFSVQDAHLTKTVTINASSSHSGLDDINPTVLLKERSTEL
Description: as §1, §2, §3

[3] = tested on: thioacetamide-induced cholangiocarcinoma (CCA) rat; experiment: SPECT/CT imaging in normal rat and thioacetamide-induced cholangiocarcinoma (CCA) rat; type: in vivo; details: tail vein
Description: All in vivo experiments were performed in compliance with the Taiwan National Health and Medical Research Council (NHMRC) Code of Practice for the care and use of animals for scientific purposes. Male-, Sprague-Dawley (SD) rats ([…]) were obtained from the Animal Research Center (Chang-Gung Memorial Hospital, Taiwan). Rats were housed under constant environmental conditions and were allowed free access to food and water throughout the experimental period. In vivo studies were performed in a thioacetamide-induced cholangiocarcinoma (CCA) rat (37th week post administration) along with a normal rat as a control.
The rats were anaesthetized via inhalant isoflurane (Forthane, Abott) in 200 mL/min oxygen during the imaging study. […]
The compound of formula 1 (0.76 mCi/1 mL) was administered by the CCA rat via tail vein injection to obtain a summation of one-hour Single Photon Emission Computer Tomography (SPECT) imaging data (FIG. 4(A)). The normal rat was injected with the residual radioactivity of the compound of formula 1 (1.39 mCi/1 mL) (FIG. 4 (B)). All in vivo experiments were performed in compliance with the NHMRC Taiwan Code of Practice for the care and use of animals for scientific purposes, and the raw data from the image further analyzed by Preclinical Multi-Modality Data Analysis software (PMOD Technologies Ltd, Zurich, Switzerland).

COX-1 [4] = target: T1, COX-1; experiment: Colorimetric COX inhibitor screening assay (competitive inhibition of substrate transfer, CIST), COX-1; type: biochemical, ovine
COX-2 [5] = target: T2, COX-2; experiment: Colorimetric COX inhibitor screening assay (competitive inhibition of substrate transfer, CIST), COX-2; type: biochemical; details: colorimetric COX (ovine) kit; read-out: IC50 value COX-2, this assay
COX-1 [6] = target: COX-1 (Homo sapiens, UniProt P23219); details: read-out: IC50 value COX-1, lit. data; literature data; cited from earlier work
COX-2 [7] = target: T3, COX-2 (Homo sapiens, UniProt P35354); details: read-out: IC50 value COX-2, lit. data; literature data; cited from earlier work
T3 sequence (P35354 18-604): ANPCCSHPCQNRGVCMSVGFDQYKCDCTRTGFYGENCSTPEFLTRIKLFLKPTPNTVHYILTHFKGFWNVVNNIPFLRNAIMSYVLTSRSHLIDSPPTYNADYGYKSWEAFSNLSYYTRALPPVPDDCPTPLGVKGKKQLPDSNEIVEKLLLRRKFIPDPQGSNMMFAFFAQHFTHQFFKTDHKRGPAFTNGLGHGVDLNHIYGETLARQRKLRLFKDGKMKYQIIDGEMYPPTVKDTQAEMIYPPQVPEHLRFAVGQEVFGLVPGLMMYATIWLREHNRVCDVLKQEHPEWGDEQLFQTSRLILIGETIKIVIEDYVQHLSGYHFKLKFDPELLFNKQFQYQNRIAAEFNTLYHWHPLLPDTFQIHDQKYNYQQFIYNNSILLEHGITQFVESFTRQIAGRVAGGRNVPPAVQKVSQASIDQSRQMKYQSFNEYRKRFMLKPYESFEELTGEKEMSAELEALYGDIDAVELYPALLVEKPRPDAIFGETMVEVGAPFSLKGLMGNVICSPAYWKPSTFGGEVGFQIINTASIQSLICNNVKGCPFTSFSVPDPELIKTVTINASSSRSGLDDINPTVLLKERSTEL

NO = details: antioxidant (e.g. NO) assay; cited from earlier work
[8] = colorimetric COX (ovine) kit, read-out: IC50 value COX-1, this assay

Chain of COX-1 (Homo sapiens, UniProt P23219) (P23219 24-599): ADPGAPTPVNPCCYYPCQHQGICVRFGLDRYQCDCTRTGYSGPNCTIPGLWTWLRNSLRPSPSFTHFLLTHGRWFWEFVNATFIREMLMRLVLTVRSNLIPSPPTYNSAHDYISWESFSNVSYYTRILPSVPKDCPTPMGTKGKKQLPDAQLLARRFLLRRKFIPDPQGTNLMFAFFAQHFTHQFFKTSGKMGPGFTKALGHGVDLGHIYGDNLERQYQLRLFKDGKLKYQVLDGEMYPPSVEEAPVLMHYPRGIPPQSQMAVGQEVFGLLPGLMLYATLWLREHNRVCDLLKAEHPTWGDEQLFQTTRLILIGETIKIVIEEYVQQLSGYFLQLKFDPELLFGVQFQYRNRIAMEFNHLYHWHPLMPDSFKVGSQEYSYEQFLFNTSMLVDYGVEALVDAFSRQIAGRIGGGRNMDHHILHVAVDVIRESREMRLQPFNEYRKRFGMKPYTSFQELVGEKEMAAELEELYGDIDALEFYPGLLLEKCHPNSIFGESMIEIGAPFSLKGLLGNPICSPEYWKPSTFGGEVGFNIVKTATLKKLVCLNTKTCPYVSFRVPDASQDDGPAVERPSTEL

Compound: C=C(CC)C(=O)c1ccc(OCC(=O)NCCCC[18F])c(Cl)c1Cl [[^18F]FBuEA, [^18F]-N-(4-fluorobutyl)ethacrynic amide]
Image of tumor lesion (rat liver tumor lesion): only shows the image of cold spot

Compound: Octyl fenbufen amide [OFA]
Anti inflammatory effect (NO): marginal

Compound: Oc1ccc(C=Cc2cc(O)cc(O)c2)cc1 [Resveratrol]
IC50 (COX-1 [4]): 3.9 µM

Continued, in another order:

Binding yield (bound conjugate, accumulated radioactivity fraction) with COX-1 (COX-1 [1]): 56%
Intact (unbound) form remained, COX-1 binding experiment (COX-1 [1]; peak at 13.6 min): 44%
Binding yield (bound conjugate, accumulated radioactivity fraction) with COX-2 (COX-2 [2]): 79%
Intact (unbound) form remained, COX-2 binding experiment (COX-2 [2]; peak at 13.6 min): 21%
Compound: CCCCCCCCNC(=O)CCC(=O)c1ccc(-c2ccc([123I])cc2)cc1 [compound of formula 1, 4-(4′-[^123I]iodobiphenyl-4-yl)-N-octyl-4-oxobutanamide]
In-vivo distribution of radioactivity, SPECT ([3]; CCA tumor rat, 0.76 mCi/1 mL): a heterogeneous radioactivity accumulation was addressed in the liver
In-vivo distribution of radioactivity, SPECT ([3]; normal rat, 1.39 mCi/1 mL, 30 mins post administration): a homogeneous pattern, which was localized mainly in the liver and partly in the heart

IC50 (COX-1 [4]; [8]): > 10 µM
IC50 (COX-2 [5]): > 10 µM
Compound: O=C(O)CCC(=O)c1ccc(-c2ccccc2)cc1 [fenbufen]
IC50 (COX-1 [6]): 3.9 µM
IC50 (COX-2 [7]): 8.1 µM

IC50 (COX-1 [4]; [8]): > 10 µM
IC50 (COX-2 [5]): > 10 µM
Binding yield (bound conjugate, accumulated radioactivity fraction) with COX-1 (COX-1 [1]): 56%
Binding yield (bound conjugate, accumulated radioactivity fraction) with COX-2 (COX-2 [2]): 76%
melting point: 181 to 182 °C
Compound: CCCCCCCCNC(=O)CCC(=O)c1ccc(-c2ccc(I)cc2)cc1 [compound of formula 2, 4-(4′-iodobiphenyl-4-yl)-n-octyl-4-oxobutanamide]

IC50 (COX-1 [4]; [8]): > 10 µM
IC50 (COX-2 [5]): > 10 µM
Compound: O=c1ccn([C@@H]2O[C@H](CO)[C@@H](O)[C@H]2O)c(=O)[nH]1 [uridine]
